Legend:
rAAV-LacZ [1] = assay: Inhibition of rAAV-LacZ transduction of HeLa cells by soluble GAGs; type: cell-based, AAV-2
Procedure: FIGS. 1A and 1B illustrate the inhibition of AAV infection by various glycosaminoglycans. In the data shown in FIG. 1A, rAAV was incubated with the indicated concentrations of heparin (solid squares), chondroitin sulfate B (dermatan sulfate) (open circles), chondroitin sulfate A (open diamonds) or chondroitin sulfate C (open triangles) for 1 hour at 37° C. prior to a 1-hour adsorption period of the virus/GAG mixture to HeLa cells for infection. β-galactosidase activity was assayed 44 hours post-infection using a Galacto-Light Plus kit (Tropix Inc.), and measured in a luminometer. Each point denotes the average % decrease in Relative Light Units (RLU) per ug of protein relative to the maximum RLU/μg protein obtained in experiments without GAG. In the data shown in FIG. 1B, HeLa cells were preincubated with increasing concentrations of heparin at 37° C. for 1 hour. After thorough washing, cells were infected with rAAV as described above. Data points represent the average % maximum RLU/ug protein obtained without heparin preincubation.
rAAV-LacZ at an MOI of 2 was incubated in DMEM-H media in the presence or absence of indicated soluble GAGs at 1.0, 5.0, 10, 20, 30 μg/ml for 1 h at 37° C. For infection, rAAV-LacZ or the virus/GAG mixture was incubated with 2×10^5 HeLa cells for 1 h at 37° C. in a 5% CO2 chamber. […]

3H-wt AAV-2 = assay: Inhibition of 3H-wt AAV-2 binding to HeLa cells by soluble GAGs; details: 90 min at 4° C.
Procedure: FIG. 2 illustrates that soluble heparin inhibits binding of AAV to the cell surface. After pre-incubation of 3H-wt AAV-2 with increasing concentrations of the indicated GAGs or the GAG analogue dextran sulfate, labeled virus was adsorbed to HeLa cells for 90 minutes at 4° C. Unbound virus was removed by three washes with ice cold binding buffer and radioactivity was quantitated as described in methods. Data is represented as the average % inhibition relative to the CPM bound in the absence of soluble GAG.
(§1) For direct binding assays, ^3H-labeled wtAAV-2 was incubated with cells either attached to plates or in suspension, as indicated, at a ratio of 4×10^11 particles/3×10^5 cells for 90 minutes at 4° C. in HBSB. Cells were then washed 3 times in ice cold HBSB to remove unbound virus, and were solubilized in 0.3 N NaOH. After neutralization with glacial acetic acid, cell-associated radioactivity was quantitated in a scintillation counter. For inhibition studies, and after enzymatic treatments, ^3H-AAV was bound to adherent HeLa cells. Binding to wild type CHO and CHO cell mutants was done with suspended cells. […] Non-specific binding was determined in the presence of 100-fold excess unlabeled wt AAV (previously dialyzed in HBS, 10% glycerol). Binding of Cy3-labeled virus was done on wild type CHO and pgsA-745 cells grown on coverslips. After fixation in 4% paraformaldehyde for 20 minutes at room temperature, cells were mounted on slides and bound Cy3 labeled virus was detected by confocal microscopy. […]
To further examine the observed specificity and to determine whether GAGs were inhibiting binding of the AAV virions to the cell surface, ^3H-wt AAV was incubated with GAGs (heparin, dermatan sulfate, chondroitin sulfate A, chondroitin sulfate C, dextran sulfate) at various concentrations. After incubation with cells, the mixture was washed and cells were solubilized to quantify bound virus. […]

[2] = test system: cell surface glycosaminoglycans of HeLa cells; assay: 3H-AAV binding to HeLa cells after GAG lyase digestion of cell surface GAGs; details: maximum concentration of enzyme tested
Procedure: (§2) FIGS. 3A and 3B illustrate the effect of enzymatic digestion of cell surface glycosaminoglycans on AAV binding and infection. In the data shown in FIG. 3A, HeLa cells were treated with the indicated concentrations of the following GAG lyases: heparitinase (solid squares), heparinase I (open diamonds), chondroitinase ABC (open circles), or chondroitinase AC (open triangles), as described in Example 13, below. After thorough washing, the ability of AAV to bind the cell surface was assessed as described in Example 12, below. Data points represent the average % reduction in AAV binding relative to AAV binding obtained without enzymatic treatment. In the data shown in FIG. 3B, HeLa cells were treated with heparitinase or heparinase I as described herein. After thorough washing, rAAV was incubated with cells for a I hour adsorption period at 37° C. Cells were harvested 44 hours post-infection and assayed for β-galactosidase activity. Results are shown as the average % reduction in AAV transduction relative to transduction observed in the absence of enzymatic treatment. Data points represent the mean and standard deviation of experiments performed in triplicate.
as §1
GAG lyases were reconstituted in phosphate buffered saline (PBS). […] Prior to use, each enzyme was tested for activity by a standard method used to determine specific activity of GAG lyases, except that enzyme activity was monitored under the conditions used for digestion, PBS pH 7.4 at 37° C. […]
Subconfluent HeLa cells were treated with various concentrations of each specific enzyme and assessed for ^3H-AAV binding.

rAAV-LacZ [3] = assay: rAAV-lacZ transduction of HeLa cells with low concentrations of heparin; type: cell-based, AAV-2; details: heparin 0.001 and 0.004 μg/mL, 48 h after infection
Procedure: HeLa cells were infected with rAAV-lacZ virus in the presence or absence of heparin, at the indicated concentrations, for one hour at 37° C. […] Results are reported as the mean and standard deviation of one experiment performed in triplicate.
HeLa cells were infected with rAAV-lacZ virus in the presence or absence of heparin, at concentrations of 0 μg/mL, 0.001 μg/mL, and 0.004 μg/mL, for one hour at 37° C. […] The results of this experiment are shown in FIG. 6 as the mean and standard deviation of one experiment performed in triplicate.

[4] = test system: cell surface glycosaminoglycans of HeLa cells; assay: rAAV-LacZ transduction of HeLa cells after GAG lyase digestion; type: cell-based; details: for reduction of rAAV transduction compared to untreated control cells: HeLa cells treated with various concentrations of enzyme
Procedure: as §2
GAG lyases were reconstituted in phosphate buffered saline (PBS). For enzymatic digestion of cell surface GAGs, 3×10^4 HeLa cells were washed and incubated with the indicated concentrations of GAG lyases in PBS containing 0.1%BSA, 0.2% gelatin and 0.1% glucose (digestion buffer) for 1 hour at 37° C. in a 5% CO2 chamber. Cells were then washed four times with digestion buffer and subjected to rAAV infection as described above. Prior to use, each enzyme was tested for activity by a standard method used to determine specific activity of GAG lyases, except that enzyme activity was monitored under the conditions used for digestion, PBS pH 7.4 at 37° C. (Linhardt, (1994) Analysis of glycosaminoglycans with polysaccharide lyases, p. 17.13.17-17.13.32. in K. Janssen (ed.), Current Protocols in Molecular Biology, vol. 3. John Wiley & Sons, Inc., New York). Cells remained attached to the plate after all enzymatic treatments. […]

chondroitin sulfate B
inhibition of rAAV transduction (β-galactosidase activity) (rAAV-LacZ [1]; 30 μg/ml GAG, HeLa cells, 44 h post-infection): 71% | inhibition of AAV binding (3H-wt AAV-2; 30 μg/ml): 51%

chondroitinase ABC
reduction of 3H-AAV binding to the cell surface after enzymatic treatment [2]: did not result in any reduction

dextran sulfate
inhibition of AAV binding (3H-wt AAV-2; 30 μg/ml): 36%

heparin
inhibition of rAAV transduction after preincubation of cells (rAAV-LacZ [1]; HeLa cells preincubated with heparin up to 20 μg/ml, washed before infection): less than 20% | inhibition of AAV binding (3H-wt AAV-2; 5 μg/ml): 90% | effect on rAAV transduction (β-galactosidase, RLU/μg protein) (rAAV-LacZ [3]): enhance rAAV transduction

B1: chondroitinase AC: GAG lyase from Seikagagku; cleaves only chondroitin sulfate type A and C (protein, UniProt Q59288 23-700, looked up)
Chondroitinase-AC: QQTGTAELIMKRVMLDLKKPLRNMDKVAEKNLNTLQPDGSWKDVPYKDDAMTNWLPNNHLLQLETIIQAYIEKDSHYYGDDKVFDQISKAFKYWYDSDPKSRNWWHNEIATPQALGEMLILMRYGKKPLDEALVHKLTERMKRGEPEKKTGANKTDIALHYFYRALLTSDEALLSFAVKELFYPVQFVHYEEGLQYDYSYLQHGPQLQISSYGAVFITGVLKLANYVRDTPYALSTEKLAIFSKYYRDSYLKAIRGSYMDFNVEGRGVSRPDILNKKAEKKRLLVAKMIDLKHTEEWADAIARTDSTVAAGYKIEPYHHQFWNGDYVQHLRPAYSFNVRMVSKRTRRSESGNKENLLGRYLSDGATNIQLRGPEYYNIMPVWEWDKIPGITSRDYLTDRPLTKLWGEQGSNDFAGGVSDGVYGASAYALDYDSLQAKKAWFFFDKEIVCLGAGINSNAPENITTTLNQSWLNGPVISTAGKTGRGKITTFKAQGQFWLLHDAIGYYFPEGANLSLSTQSQKGNWFHINNSHSKDEVSGDVFKLWINHGARPENAQYAYIVLPGINKPEEIKKYNGTAPKVLANTNQLQAVYHQQLDMVQAIFYTAGKLSVAGIEIETDKPCAVLIKHINGKQVIWAADPLQKEKTAVLSIRDLKTGKTNRVKIDFPQQEFAGATVELK
reduction of 3H-AAV binding to the cell surface after enzymatic treatment [2]: did not result in any reduction

B2: heparinase: GAG lyase purchased from Sigma; cleaves linkages found in heparan sulfate (protein, UniProt Q05819 22-384, looked up)
Heparin lyase I: QQKKSGNIPYRVNVQADSAKQKAIIDNKWVAVGINKPYALQYDDKLRFNGKPSYRFELKAEDNSLEGYAAGETKGRTELSYSYATTNDFKKFPPSVYQNAQKLKTVYHYGKGICEQGSSRSYTFSVYIPSSFPDNATTIFAQWHGAPSRTLVATPEGEIKTLSIEEFLALYDRMIFKKNIAHDKVEKKDKDGKITYVAGKPNGWKVEQGGYPTLAFGFSKGYFYIKANSDRQWLTDKADRNNANPENSEVMKPYSSEYKTSTIAYKMPFAQFPKDCWITFDVAIDWTKYGKEANTILKPGKLDVMMTYTKNKKPQKAHIVNQQEILIGRNDDDGYYFKFGIYRVGNSTVPVTYNLSGYSETAR
reduction of 3H-AAV binding to the cell surface after enzymatic treatment [2]: 66% | reduction of rAAV transduction compared to untreated control cells [4]: 80%

B3: heparitinase: GAG lyase purchased from Sigma; cleaves linkages found in heparan sulfate (protein, UniProt Q59289 25-659, looked up)
Heparin-sulfate lyase: QSSSITRKDFDHINLEYSGLEKVNKAVAAGNYDDAAKALLAYYREKSKAREPDFSNAEKPADIRQPIDKVTREMADKALVHQFQPHKGYGYFDYGKDINWQMWPVKDNEVRWQLHRVKWWQAMALVYHATGDEKYAREWVYQYSDWARKNPLGLSQDNDKFVWRPLEVSDRVQSLPPTFSLFVNSPAFTPAFLMEFLNSYHQQADYLSTHYAEQGNHRLFEAQRNLFAGVSFPEFKDSPRWRQTGISVLNTEIKKQVYADGMQFELSPIYHVAAIDIFLKAYGSAKRVNLEKEFPQSYVQTVENMIMALISISLPDYNTPMFGDSWITDKNFRMAQFASWARVFPANQAIKYFATDGKQGKAPNFLSKALSNAGFYTFRSGWDKNATVMVLKASPPGEFHAQPDNGTFELFIKGRNFTPDAGVFVYSGDEAIMKLRNWYRQTRIHSTLTLDNQNMVITKARQNKWETGNNLDVLTYTNPSYPNLDHQRSVLFINKKYFLVIDRAIGEATGNLGVHWQLKEDSNPVFDKTKNRVYTTYRDGNNLMIQSLNADRTSLNEEEGKVSYVYNKELKRPAFVFEKPKKNAGTQNFVSIVYPYDGQKAPEISIRENKGNDFEKGKLNLTLTINGKQQLVLVP
reduction of 3H-AAV binding to the cell surface after enzymatic treatment [2]: 73% | reduction of AAV infection ([4]; 0.425 mIU/ml enzyme, HeLa cells): up to 72% | reduction of rAAV transduction compared to untreated control cells [4]: 80%

From patent US6703237B2, “Methods and formulations for mediating adeno-associated virus (AAV) attachment and infection and methods for purifying AAV” (priority 1998, dated 2004)
